Data reported in patent US7705016B2, “Regulation of food intake by modulation of long-chain fatty acyl-CoA levels in the hypothalamus” (Albert Einstein College of Medicine of Yeshiva University, priority 2003, dated 2010).

Biological target: T1, CPT1L (Rattus norvegicus, UniProt P32198)
T1 construct: from tissue; host or cells: hypothalamus (arcuate nucleus) of male Sprague-Dawley rats, in vivo or ex vivo
T1 sequence (P32198 1-773): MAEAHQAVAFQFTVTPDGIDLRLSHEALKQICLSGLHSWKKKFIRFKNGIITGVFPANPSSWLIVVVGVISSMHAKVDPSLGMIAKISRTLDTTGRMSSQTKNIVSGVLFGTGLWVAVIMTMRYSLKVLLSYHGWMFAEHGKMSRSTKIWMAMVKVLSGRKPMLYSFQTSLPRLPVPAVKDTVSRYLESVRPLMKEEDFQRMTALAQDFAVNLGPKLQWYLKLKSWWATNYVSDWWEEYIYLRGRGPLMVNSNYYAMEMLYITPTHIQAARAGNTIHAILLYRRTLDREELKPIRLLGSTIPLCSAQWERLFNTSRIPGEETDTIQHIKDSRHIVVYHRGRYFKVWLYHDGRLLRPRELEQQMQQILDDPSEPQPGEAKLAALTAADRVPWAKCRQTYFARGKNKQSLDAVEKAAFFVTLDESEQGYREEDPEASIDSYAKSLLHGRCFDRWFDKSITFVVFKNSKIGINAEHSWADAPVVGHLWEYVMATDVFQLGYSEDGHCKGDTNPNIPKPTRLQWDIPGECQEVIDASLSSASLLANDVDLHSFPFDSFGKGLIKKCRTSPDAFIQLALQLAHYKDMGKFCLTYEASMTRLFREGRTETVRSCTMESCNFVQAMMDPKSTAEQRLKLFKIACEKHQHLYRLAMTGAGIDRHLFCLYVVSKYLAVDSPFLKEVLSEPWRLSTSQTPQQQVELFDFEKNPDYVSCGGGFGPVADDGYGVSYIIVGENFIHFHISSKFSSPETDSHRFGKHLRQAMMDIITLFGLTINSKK
Assay: LC-CoA levels in hypothalamic nuclei by HPLC after ICV CPT1 inhibitor
Format: in vivo
Conditions: ICV administration
Description: Surgical implantation of ICV cannulae was performed on day 1 (˜3 weeks prior to the in vivo study). Full recovery of body weight and food intake was achieved by day 7. Rats randomized for ribozyme treatment received an ICV injection of CPT1L-Ribo, CPT inhibitors or controls on day 17. The experimental group treated with TDGA received ICV injection of the inhibitor on day 21, 6 hr prior to the harvesting of brains. Panels B. and C. show quantitation of CPT1L (B) and CPT1M (C) mRNA by real-time PCR. RNA was purified from individual hypothalamic nuclei (PVN, LHA, and arcuate), which were obtained by micro punch technique 3 days after ICV injection of pTarget control (▪; N=4) or CPT1LRibo (□; N=5). Copy number of CPT1 mRNA is normalized to β-Actin copy number ×10^6. Panels D. and E. show CPT1 activity in individual arcuate nuclei (D) or whole hypothalamus (E). Brains were harvested 6 hr or 3 days […] the ICV injection of TDGA or CPT1L-Ribo respectively, and arcuate nuclei were punched out. CPT1 activity was measured in the particulate fraction of protein extracts from animals treated with ICV control injections (▪; N=6, receiving aCSF+2% DMSO or Control Ribo), TDGA ( ?; N=6), or CPTL-Ribo (□; N=5). Panels F and E establish that ICV administration of CPT1 inhibitors increases levels of LC-CoAs in arcuate. Levels of stearoyl-CoA (F) and oleyl-CoA (E) respectively were measured by HPLC in arcuate of rats injected ICV with control compound (▪; ST1340) or ST1326 (□).
ICV catheters were implanted in male Sprague-Dawley rats by stereotaxic surgery (Obici et al., 2002a; Obici et al., 2001; Liu et al., 1998). The biochemical or molecular analyses, the metabolic or the feeding experiments were performed ˜3 weeks later following complete recovery from the operation (FIG. 2a). CPT1L-Ribo was delivered ICV three days prior to experimental tests (FIG. 2a). […] Thus, we next measured CPT1 activity in ARC and in whole hypothalamus. […]

SMILES: CCCCCCCCCCCCCCNC(=O)N[C@H](CC(=O)[O-])C[N+](C)(C)C [ST1326, (R)-N-(tetradecylcarbamoyl)-aminocarnitine]
- Oleyl-CoA levels in ARC: marked increase
- stearoyl-CoA levels in ARC: marked increase
- Other LC-CoAs (data not shown): significantly increased
